According to patent EP3177293B1, “METHOD OF TREATING SKIN CONDITIONS” (Astrazeneca AB, priority 2014, dated 2015):
Like-named read-outs stand apart in the source and are kept apart here.

Legend:
skin = conditions: clinical trials of short duration (Denison et al. 2013); cited from earlier work
dog DGAT1 = target: T1, dog DGAT1 (Canis lupus familiaris, UniProt A0A8I3NFS1); test: in vitro recombinant DGAT1 enzyme assay (dog); format: biochemical
T1 sequence (A0A8I3NFS1 67-492): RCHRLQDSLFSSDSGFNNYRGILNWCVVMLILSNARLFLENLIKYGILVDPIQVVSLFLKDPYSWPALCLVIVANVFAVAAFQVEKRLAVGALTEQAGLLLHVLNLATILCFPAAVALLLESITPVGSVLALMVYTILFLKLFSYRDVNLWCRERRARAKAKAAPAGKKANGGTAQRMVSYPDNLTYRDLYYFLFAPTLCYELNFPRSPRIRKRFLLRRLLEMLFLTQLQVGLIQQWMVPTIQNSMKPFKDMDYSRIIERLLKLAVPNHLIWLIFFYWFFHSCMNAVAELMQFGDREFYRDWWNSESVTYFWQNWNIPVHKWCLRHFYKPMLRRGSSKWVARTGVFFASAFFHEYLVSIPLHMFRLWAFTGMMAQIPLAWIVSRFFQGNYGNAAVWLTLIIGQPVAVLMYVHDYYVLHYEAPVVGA

sebaceous glands [1] = test system: sebaceous glands
From the text: Up to 32 (16 male and 16 female) mice (Crl:CD-1(ICR)) per dose group were obtained from the AstraZeneca breeding unit (Alderley Park, Macclesfield, UK). The animals, aged 7-8 weeks, were allowed to acclimatise for at least one week, were multiple-housed, sexes separately, up to 5/cage. Water from the site drinking water supply and RM1 (E) SQC pelleted diet supplied by Special Diets Services Ltd., England, was freely available. Nesting material (Tapvei Aspen Chips, Tapvei small aspen bricks, Finland, sizzle nests and paper shavings, and polycarbonate tunnels, Datesand,UK) was provided. Animals were terminated for scheduled necropsy on the day after the final dose. The mice were killed by administration of halothane.
(§1) For pharmacokinetic analysis, blood samples were collected into lithium heparin tubes from animals on either the first or penultimate day of the study. Plasma was separated by centrifugation at 4°C and stored for analysis at -20°C. […] Exposure data are presented as FDM (free drug concentration in blood plasma required to inhibit the microsomal DGAT1 enzyme by 50%) and are mean data for each dose level. […] At the end of each experiment, animals were terminally anaesthetised and representative samples of skin (mammary gland region for mice, abdominal region for dogs) were taken at necropsy, placed in 10% buffered formalin and processed for histopathological assessment. Conventional processing into wax and haematoxylin and eosin staining of sections preceded their light microscopic examination.
(§2) Light microscopic examination and histology scoring was performed by a certified pathologist and findings were peer reviewed by a second pathologist. Each section of skin contained from 15 - 25 hair follicles in different stages of differentiation with associated sebaceous glands that were cut in multiple planes. […] Therefore, assessment of sebaceous cell/gland atrophy was based on their appearances irrespective of the stage of differentiation of the associated hair follicle in all instances.

human DGAT2 = target: T2, human DGAT2 (Homo sapiens, UniProt Q96PD7); test: DGAT2 activity; format: biochemical
T2 sequence (Q96PD7 1-388): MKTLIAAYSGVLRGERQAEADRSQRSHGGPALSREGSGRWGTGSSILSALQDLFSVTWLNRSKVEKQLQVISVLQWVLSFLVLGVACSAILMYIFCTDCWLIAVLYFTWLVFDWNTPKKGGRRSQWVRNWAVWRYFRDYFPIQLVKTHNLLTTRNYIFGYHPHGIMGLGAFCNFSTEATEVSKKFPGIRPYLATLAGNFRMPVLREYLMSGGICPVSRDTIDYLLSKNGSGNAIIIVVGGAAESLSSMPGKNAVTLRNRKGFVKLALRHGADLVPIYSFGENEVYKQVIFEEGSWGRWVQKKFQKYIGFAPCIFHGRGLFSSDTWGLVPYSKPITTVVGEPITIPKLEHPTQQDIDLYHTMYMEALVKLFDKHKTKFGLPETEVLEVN

mouse DGAT1 = target: T3, mouse DGAT1 (Mus musculus, UniProt Q9Z2A7); test: in vitro recombinant DGAT1 enzyme assay (mouse); format: biochemical
T3 sequence (Q9Z2A7 1-498): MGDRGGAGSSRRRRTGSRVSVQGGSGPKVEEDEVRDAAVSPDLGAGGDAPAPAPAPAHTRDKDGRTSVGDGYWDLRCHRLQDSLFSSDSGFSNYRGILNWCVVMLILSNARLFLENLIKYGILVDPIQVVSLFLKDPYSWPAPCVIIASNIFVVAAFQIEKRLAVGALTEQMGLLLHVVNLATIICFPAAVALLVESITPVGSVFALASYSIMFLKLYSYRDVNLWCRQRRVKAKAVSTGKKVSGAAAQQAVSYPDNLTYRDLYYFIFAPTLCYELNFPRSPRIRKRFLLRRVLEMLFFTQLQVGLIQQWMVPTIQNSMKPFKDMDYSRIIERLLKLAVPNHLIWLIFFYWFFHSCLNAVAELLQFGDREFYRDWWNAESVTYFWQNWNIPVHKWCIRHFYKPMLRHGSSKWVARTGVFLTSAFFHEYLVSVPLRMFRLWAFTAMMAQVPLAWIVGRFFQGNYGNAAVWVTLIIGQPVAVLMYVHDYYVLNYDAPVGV

[2] = toxicokinetic analysis of plasma exposure in dogs, oral dosing; format: in vivo, beagle dogs
From the text: (§3) Doses and frequency of dosing were selected following consideration of species specific tolerability and pharmacokinetic parameters. Doses predicted to result in exposures which were likely to cause maximum DGAT1 inhibition without resulting in intolerability were chosen as the highest dose level.

[3] = toxicokinetic analysis of plasma exposure in mice, oral dosing; format: in vivo, mice (Crl:CD-1(ICR)); conditions: for Cmax as multiple of mouse microsomal DGAT1 enzyme IC50 / Cmin as multiple of DGAT1 IC50: oral once daily
From the text: as §3
The mice were killed by administration of halothane.

sebaceous glands [4] = test system: sebaceous glands; remark: listed apart in the source
Protocol: Up to 8 (4 male and 4 female) beagle dogs per treatment group were obtained from the AstraZeneca breeding unit (Alderley Park, Macclesfield, UK). […] All animals were observed daily for clinical signs of toxicity. Body weight and food consumption was measured daily prior to dosing. Animals were single-penned, with access to an exercise area with others of the same sex and group, for the major part of each day. Animals had free access to water from the site drinking water supply. A set weight of SDS Dog-D3 (E) SQC, supplied by Special Diet Services Ltd, England, was provided daily, in the afternoon, access being allowed for up to approximately 2 hours. Toys (e.g., bones) were provided for additional environmental enhancement. Animals were terminated for scheduled necropsy on the day after the final dose. The dogs were killed by intravenous administration of sodium pentobarbitone and then exsanguinated.
as §1, §2

human DGAT1 = target: T4, human DGAT1 (Homo sapiens, UniProt O75907); test: in vitro recombinant DGAT1 enzyme assay (human); format: biochemical
T4 sequence (O75907 1-488): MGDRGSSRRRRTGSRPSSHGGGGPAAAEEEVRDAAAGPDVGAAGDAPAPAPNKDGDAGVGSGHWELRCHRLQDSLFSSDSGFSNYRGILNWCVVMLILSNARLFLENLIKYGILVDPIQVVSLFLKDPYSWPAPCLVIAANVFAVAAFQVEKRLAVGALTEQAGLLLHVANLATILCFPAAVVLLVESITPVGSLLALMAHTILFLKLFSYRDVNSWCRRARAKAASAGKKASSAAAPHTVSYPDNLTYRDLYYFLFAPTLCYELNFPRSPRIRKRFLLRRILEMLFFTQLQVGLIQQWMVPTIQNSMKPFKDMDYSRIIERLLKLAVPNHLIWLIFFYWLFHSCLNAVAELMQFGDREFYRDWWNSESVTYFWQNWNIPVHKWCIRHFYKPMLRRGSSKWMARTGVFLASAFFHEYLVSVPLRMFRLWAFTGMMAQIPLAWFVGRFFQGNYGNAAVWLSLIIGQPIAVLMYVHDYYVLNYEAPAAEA

human ACAT2 = target: T5, human ACAT2 (Homo sapiens, UniProt O75908); test: ACAT2 enzyme inhibition; format: biochemical
T5 sequence (O75908 1-522): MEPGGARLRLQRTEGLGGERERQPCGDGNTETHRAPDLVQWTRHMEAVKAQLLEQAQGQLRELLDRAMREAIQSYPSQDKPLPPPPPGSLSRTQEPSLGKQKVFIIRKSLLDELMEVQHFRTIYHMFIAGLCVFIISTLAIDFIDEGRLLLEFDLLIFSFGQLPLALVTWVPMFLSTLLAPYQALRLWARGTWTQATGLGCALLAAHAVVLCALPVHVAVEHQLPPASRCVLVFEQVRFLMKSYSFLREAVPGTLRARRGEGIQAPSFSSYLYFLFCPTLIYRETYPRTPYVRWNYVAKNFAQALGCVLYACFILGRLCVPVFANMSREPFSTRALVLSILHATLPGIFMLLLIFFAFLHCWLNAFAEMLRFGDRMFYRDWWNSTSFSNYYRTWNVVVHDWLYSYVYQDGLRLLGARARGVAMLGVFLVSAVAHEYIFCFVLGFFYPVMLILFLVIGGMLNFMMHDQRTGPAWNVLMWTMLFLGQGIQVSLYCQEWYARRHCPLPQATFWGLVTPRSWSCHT

[5] = mouse, 1 month and 6 month studies
[6] = 1mg/kg/day dose group, 180 day study
[7] = 600 mg/kg/day dose group, 7 day study

Q: Which “effects on the skin of healthy volunteers” value (skin) does the source give for `Cc1nc(C)c(-c2ccc([C@H]3CC[C@H](CC(=O)O)CC3)cc2)nc1C(N)=O` [2-((1R,4R)-4-(4-(6-carbamoyl-3,5-dimethylpyrazin-2-yl)phenyl)cyclohexyl)acetic acid] here?
A: no effects

Q: What about the IC50 (dog DGAT1) of the same compound?
A: ~60 nM

Q: What about the “exposure at Cmin at which additional skin findings occurred” value (sebaceous glands [1]; Crl:CD-1(ICR), mouse, in vivo, 6 months) of the same compound?
A: ≥ 7 x FDM

Q: And the “skin photomicrograph appearance of sebaceous glands (Figure 5 B)” value (sebaceous glands [1]; male mouse, 300 mg/kg/day for 6 months)?
A: substantial atrophy of sebaceous glands with much reduced sebum and mild hyperkeratosis

Q: And the “reversibility of sebaceous gland atrophy” value (sebaceous glands [1]; mice, 4 week drug-free period after 1 month of treatment)?
A: complete reversibility

Q: What about the “group mean severity of sebaceous gland atrophy” value (“group mean severity” for short) (sebaceous glands [1]; mice, after 1 month (28 days) of dosing) of the same compound?
A: minimal to mild

Q: What about the “group mean severity” value (sebaceous glands [1]; mice, after 6 months (180 days) of dosing) of the same compound?
A: minimal to moderate

Q: And the sebaceous gland atrophy (sebaceous glands [1]; mice, high doses for up to 7 days)?
A: absent

Q: What about the “duration of DGAT1 inhibition required for microscopical detection of sebaceous gland atrophy” value (sebaceous glands [1]; mouse) of the same compound?
A: more than 7 days

Q: What about the “skin photomicrograph appearance of sebaceous glands (Figure 1 B)” value (sebaceous glands [1]; mouse, 300 mg/kg/day for 28 days) of the same compound?
A: severely atrophic sebaceous glands with substantially reduced sebum

Q: What about the “skin photomicrograph appearance of sebaceous glands (Figure 1 C)” value (sebaceous glands [1]; mouse, 300 mg/kg/day for 28 days followed by drug free recovery period of 28 days) of the same compound?
A: normal appearance of sebum filled sebaceous glands

Q: And the “exposure at Cmin with mild to moderate sebaceous gland atrophy” value (sebaceous glands [1]; [5])?
A: 46 x FDM

Q: And the “exposure at Cmin with minimal to mild sebaceous gland atrophy” value (sebaceous glands [1]; [5])?
A: 7 - 40 x FDM

Q: What about the “exposure at Cmax at which additional skin findings occurred” value (sebaceous glands [1]; mouse, in vivo) of the same compound?
A: at least 50 x FDM

Q: What about the “histopathological findings in the skin” value (sebaceous glands [1]; mouse, in vivo) of the same compound?
A: restricted to sebaceous gland atrophy only

Q: What about the “significant increase in inflammation in the skin” value (sebaceous glands [1]; mouse, in vivo) of the same compound?
A: not seen

Q: What about the “skin findings associated with sebaceous gland atrophy” value (sebaceous glands [1]; mouse, in vivo) of the same compound?
A: epidermal hyperplasia, occasional hair follicle atrophy, as well as in-life observation of hair-loss and skin lesions

Q: And the tolerability (sebaceous glands [1]; mouse, in vivo)?
A: well tolerated

Q: And the “activity against human DGAT2” value (human DGAT2)?
A: No activity

Q: What about the IC50 (mouse DGAT1) of the same compound?
A: ~100 nM

Q: And the “Cmax as multiple of dog microsomal DGAT1 enzyme IC50” value ([2]; 4 mg/kg/day dose group, 3 month study)?
A: 10 x IC50

Q: What about the “Cmin as multiple of DGAT1 IC50” value ([2]; 4 mg/kg/day dose group, 3 months study) of the same compound?
A: 1 x IC50

Q: What about the “Cmin as multiple of DGAT1 IC50” value ([2]; 1000 mg/kg/day dose group, 7 day study) of the same compound?
A: 54 x IC50

Q: What about the “Cmax as multiple of dog microsomal DGAT1 enzyme IC50” value ([2]; 1000 mg/kg/day dose group, 'in the same study' (3 month study as printed)) of the same compound?
A: 292 x IC50

Q: And the “Cmax as multiple of mouse microsomal DGAT1 enzyme IC50” value [3, 6]?
A: 4 x IC50

Q: What about the “Cmin as multiple of DGAT1 IC50” value [3, 6] of the same compound?
A: 1 x IC50

Q: And the “Cmax as multiple of mouse microsomal DGAT1 enzyme IC50” value [3, 7]?
A: 1581 x IC50

Q: What about the “Cmin as multiple of DGAT1 IC50” value [3, 7] of the same compound?
A: 766 x IC50

Q: And the “sex difference in exposure” value ([3]; male versus female mice)?
A: 1.5 - 3 x

Q: And the “duration of DGAT1 inhibition required for microscopical detection of sebaceous gland atrophy” value (sebaceous glands [4]; dog)?
A: more than 7 days

Q: And the “exposure at Cmin with mild to moderate sebaceous gland atrophy” value (sebaceous glands [4]; dog)?
A: > 36 x FDM

Q: And the “exposure at Cmin with minimal to mild sebaceous gland atrophy” value (sebaceous glands [4]; dog)?
A: 7-54 x FDM

Q: And the “skin photomicrograph appearance of sebaceous glands (Figure 6 B)” value (sebaceous glands [4]; dog, 100 mg/kg/day for 6 months)?
A: atrophic sebaceous glands which contain little sebum

Q: And the “additional skin changes (occasional hair follicle atrophy, hair-loss and skin lesions)” value (sebaceous glands [4]; dog, in vivo)?
A: not observed

Q: And the “hyperkeratosis of the epithelium covering the infundibula of hair follicles” value (sebaceous glands [4]; dog, in vivo)?
A: minimal hyperkeratosis

Q: What about the “significant increase in inflammation in the skin” value (sebaceous glands [4]; dog, in vivo) of the same compound?
A: not seen

Q: What about the tolerability (sebaceous glands [4]; dog, in vivo) of the same compound?
A: well tolerated

Q: What about the sebaceous gland atrophy (sebaceous glands [4]; dogs dosed for up to 7 days) of the same compound?
A: absent

Q: What about the “reversibility of sebaceous gland atrophy” value (sebaceous glands [4]; dogs, 4 week drug-free period after 3 months of dosing) of the same compound?
A: complete reversibility

Q: What about the “group mean severity” value (sebaceous glands [4]; dogs, after 3 months (90 days) of dosing) of the same compound?
A: minimal to moderate

Q: And the “group mean severity” value (sebaceous glands [4]; dogs, after 14 days of dosing)?
A: minimal to mild

Q: What about the “group mean severity” value (sebaceous glands [4]; dogs, highest dose group after 6 months (180 days)) of the same compound?
A: moderate

Q: And the IC50 (human DGAT1)?
A: ~80 nM

Q: And the IC50 (human ACAT2)?
A: > 35000 nM
